The compounds below were run on test plant species (assay: Post-emergent herbicidal activity test (greenhouse, foliar spray, visual growth reduction)). Conditions: post-emergence, 336 h, ALOMY: blackgrass (Alopecurus myosuroides), 140 g ai/ha, 14 days after application, read-out: Visual Growth Reduction (%) 14 Days After Application, ALOMY.
Assay type: in vivo
Procedure, shortened: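 Greenhouse plants at first–second true leaf stage sprayed overhead at 187 L/ha with compound in acetone/water/isopropanol/DMSO/crop oil/X-77 carrier; controls received solvent blank. Injury rated visually after 14 d on a 0–100% scale versus untreated and control plants, converted to growth reduction.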

Compound	pest or weed control at 140 g/ha [%]
C=Cc1ccc(-c2ccc(Cl)c(C(=O)OC)n2)c(Cl)c1 [F23, methyl 3-chloro-6-(2-chloro-4-vinylphenyl)picolinate]	0 to 29
COC(=O)c1nc(-c2ccc(C(F)(F)F)cc2F)c(F)cc1Cl [F158, methyl 3-chloro-5-fluoro-6-(2-fluoro-4-(trifluoromethyl)phenyl)picolinate]	0 to 29

Same assay, conditions: post-emergence, 336 h, AMARE: redroot pigweed (Amaranthus retroflexus), 140 g ai/ha, 14 days after application, read-out: Visual Growth Reduction (%) 14 Days After Application, AMARE

Compound	pest or weed control at 140 g/ha [%]
C=Cc1ccc(-c2ccc(Cl)c(C(=O)OC)n2)c(Cl)c1 [F23, methyl 3-chloro-6-(2-chloro-4-vinylphenyl)picolinate]	0 to 29
COC(=O)c1nc(-c2ccc(C(F)(F)F)cc2F)c(F)cc1Cl [F158, methyl 3-chloro-5-fluoro-6-(2-fluoro-4-(trifluoromethyl)phenyl)picolinate]	95 to 100

Same assay, conditions: post-emergence, 336 h, AVEFA: wild oat (Avena fatua), 140 g ai/ha, 14 days after application, read-out: Visual Growth Reduction (%) 14 Days After Application, AVEFA

Compound	pest or weed control at 140 g/ha [%]
C=Cc1ccc(-c2ccc(Cl)c(C(=O)OC)n2)c(Cl)c1 [F23, methyl 3-chloro-6-(2-chloro-4-vinylphenyl)picolinate]	0 to 29
COC(=O)c1nc(-c2ccc(C(F)(F)F)cc2F)c(F)cc1Cl [F158, methyl 3-chloro-5-fluoro-6-(2-fluoro-4-(trifluoromethyl)phenyl)picolinate]	30 to 44

Same assay, conditions: post-emergence, 336 h, CHEAL: lambsquarters (Chenopodium album), 140 g ai/ha, 14 days after application, read-out: Visual Growth Reduction (%) 14 Days After Application, CHEAL

Compound	pest or weed control at 140 g/ha [%]
C=Cc1ccc(-c2ccc(Cl)c(C(=O)OC)n2)c(Cl)c1 [F23, methyl 3-chloro-6-(2-chloro-4-vinylphenyl)picolinate]	0 to 29
COC(=O)c1nc(-c2ccc(C(F)(F)F)cc2F)c(F)cc1Cl [F158, methyl 3-chloro-5-fluoro-6-(2-fluoro-4-(trifluoromethyl)phenyl)picolinate]	95 to 100

Same assay, conditions: post-emergence, 336 h, CIRAR: canada thistle (Cirsium arvense), 140 g ai/ha, 14 days after application, read-out: Visual Growth Reduction (%) 14 Days After Application, CIRAR

Compound	pest or weed control at 140 g/ha [%]
C=Cc1ccc(-c2ccc(Cl)c(C(=O)OC)n2)c(Cl)c1 [F23, methyl 3-chloro-6-(2-chloro-4-vinylphenyl)picolinate]	0 to 29
COC(=O)c1nc(-c2ccc(C(F)(F)F)cc2F)c(F)cc1Cl [F158, methyl 3-chloro-5-fluoro-6-(2-fluoro-4-(trifluoromethyl)phenyl)picolinate]	85 to 94

Same assay, conditions: post-emergence, 336 h, CYPES: yellow nutsedge (Cyperus esculentus), 140 g ai/ha, 14 days after application, read-out: Visual Growth Reduction (%) 14 Days After Application, CYPES

Compound	pest or weed control at 140 g/ha [%]
C=Cc1ccc(-c2ccc(Cl)c(C(=O)OC)n2)c(Cl)c1 [F23, methyl 3-chloro-6-(2-chloro-4-vinylphenyl)picolinate]	0 to 29
COC(=O)c1nc(-c2ccc(C(F)(F)F)cc2F)c(F)cc1Cl [F158, methyl 3-chloro-5-fluoro-6-(2-fluoro-4-(trifluoromethyl)phenyl)picolinate]	0 to 29

Same assay, conditions: post-emergence, 336 h, DIGSA: crabgrass (Digitaria sanguinalis), 140 g ai/ha, 14 days after application, read-out: Visual Growth Reduction (%) 14 Days After Application, DIGSA

Compound	pest or weed control at 140 g/ha [%]
C=Cc1ccc(-c2ccc(Cl)c(C(=O)OC)n2)c(Cl)c1 [F23, methyl 3-chloro-6-(2-chloro-4-vinylphenyl)picolinate]	0 to 29
COC(=O)c1nc(-c2ccc(C(F)(F)F)cc2F)c(F)cc1Cl [F158, methyl 3-chloro-5-fluoro-6-(2-fluoro-4-(trifluoromethyl)phenyl)picolinate]	85 to 94

Same assay, conditions: post-emergence, 336 h, ECHCG: barnyardgrass (Echinochloa crus-galli), 140 g ai/ha, 14 days after application, read-out: Visual Growth Reduction (%) 14 Days After Application, ECHCG

Compound	pest or weed control at 140 g/ha [%]
O=C(O)c1nc(-c2ccc(C(F)(F)F)c(F)c2)ccc1Cl [F315, 3-Chloro-6-(3-fluoro-4-(trifluoromethyl)phenyl) picolinic acid]	0 to 29
C=Cc1ccc(-c2ccc(Cl)c(C(=O)OC)n2)c(Cl)c1 [F23, methyl 3-chloro-6-(2-chloro-4-vinylphenyl)picolinate]	0 to 29
COC(=O)c1nc(-c2ccc(C(F)(F)F)cc2F)c(F)cc1Cl [F158, methyl 3-chloro-5-fluoro-6-(2-fluoro-4-(trifluoromethyl)phenyl)picolinate]	45 to 59

Same assay, conditions: post-emergence, 336 h, IPOHE: ivy-leaf morning glory (Ipomoea hederacea), 140 g ai/ha, 14 days after application, read-out: Visual Growth Reduction (%) 14 Days After Application, IPOHE

Compound	pest or weed control at 140 g/ha [%]
O=C(O)c1nc(-c2ccc(C(F)(F)F)c(F)c2)ccc1Cl [F315, 3-Chloro-6-(3-fluoro-4-(trifluoromethyl)phenyl) picolinic acid]	95 to 100
C=Cc1ccc(-c2ccc(Cl)c(C(=O)OC)n2)c(Cl)c1 [F23, methyl 3-chloro-6-(2-chloro-4-vinylphenyl)picolinate]	30 to 44
COC(=O)c1nc(-c2ccc(C(F)(F)F)cc2F)c(F)cc1Cl [F158, methyl 3-chloro-5-fluoro-6-(2-fluoro-4-(trifluoromethyl)phenyl)picolinate]	95 to 100

Same assay, conditions: post-emergence, 336 h, KCHSC: kochia (Bassia scoparia), 140 g ai/ha, 14 days after application, read-out: Visual Growth Reduction (%) 14 Days After Application, KCHSC

Compound	pest or weed control at 140 g/ha [%]
O=C(O)c1nc(-c2ccc(C(F)(F)F)c(F)c2)ccc1Cl [F315, 3-Chloro-6-(3-fluoro-4-(trifluoromethyl)phenyl) picolinic acid]	0 to 29
C=Cc1ccc(-c2ccc(Cl)c(C(=O)OC)n2)c(Cl)c1 [F23, methyl 3-chloro-6-(2-chloro-4-vinylphenyl)picolinate]	0 to 29
COC(=O)c1nc(-c2ccc(C(F)(F)F)cc2F)c(F)cc1Cl [F158, methyl 3-chloro-5-fluoro-6-(2-fluoro-4-(trifluoromethyl)phenyl)picolinate]	60 to 74

Same assay, conditions: post-emergence, 336 h, ORYSA: rice (Oryza sativa), 140 g ai/ha, 14 days after application, read-out: Visual Growth Reduction (%) 14 Days After Application, ORYSA

Compound	pest or weed control at 140 g/ha [%]
O=C(O)c1nc(-c2ccc(C(F)(F)F)c(F)c2)ccc1Cl [F315, 3-Chloro-6-(3-fluoro-4-(trifluoromethyl)phenyl) picolinic acid]	0 to 29
C=Cc1ccc(-c2ccc(Cl)c(C(=O)OC)n2)c(Cl)c1 [F23, methyl 3-chloro-6-(2-chloro-4-vinylphenyl)picolinate]	0 to 29
COC(=O)c1nc(-c2ccc(C(F)(F)F)cc2F)c(F)cc1Cl [F158, methyl 3-chloro-5-fluoro-6-(2-fluoro-4-(trifluoromethyl)phenyl)picolinate]	0 to 29

Same assay, conditions: post-emergence, 336 h, SETFA: giant foxtail (Setaria faberi), 140 g ai/ha, 14 days after application, read-out: Visual Growth Reduction (%) 14 Days After Application, SETFA

Compound	pest or weed control at 140 g/ha [%]
O=C(O)c1nc(-c2ccc(C(F)(F)F)c(F)c2)ccc1Cl [F315, 3-Chloro-6-(3-fluoro-4-(trifluoromethyl)phenyl) picolinic acid]	60 to 74
C=Cc1ccc(-c2ccc(Cl)c(C(=O)OC)n2)c(Cl)c1 [F23, methyl 3-chloro-6-(2-chloro-4-vinylphenyl)picolinate]	0 to 29
COC(=O)c1nc(-c2ccc(C(F)(F)F)cc2F)c(F)cc1Cl [F158, methyl 3-chloro-5-fluoro-6-(2-fluoro-4-(trifluoromethyl)phenyl)picolinate]	75 to 84

Same assay, conditions: post-emergence, 336 h, SORVU: grain sorghum (Sorghum vulgare), 140 g ai/ha, 14 days after application, read-out: Visual Growth Reduction (%) 14 Days After Application, SORVU

Compound	pest or weed control at 140 g/ha [%]
O=C(O)c1nc(-c2ccc(C(F)(F)F)c(F)c2)ccc1Cl [F315, 3-Chloro-6-(3-fluoro-4-(trifluoromethyl)phenyl) picolinic acid]	85 to 94
C=Cc1ccc(-c2ccc(Cl)c(C(=O)OC)n2)c(Cl)c1 [F23, methyl 3-chloro-6-(2-chloro-4-vinylphenyl)picolinate]	0 to 29
COC(=O)c1nc(-c2ccc(C(F)(F)F)cc2F)c(F)cc1Cl [F158, methyl 3-chloro-5-fluoro-6-(2-fluoro-4-(trifluoromethyl)phenyl)picolinate]	75 to 84

Same assay, conditions: post-emergence, 336 h, STEME: common chickweed (Stellaria media), 140 g ai/ha, 14 days after application, read-out: Visual Growth Reduction (%) 14 Days After Application, STEME

Compound	pest or weed control at 140 g/ha [%]
O=C(O)c1nc(-c2ccc(C(F)(F)F)c(F)c2)ccc1Cl [F315, 3-Chloro-6-(3-fluoro-4-(trifluoromethyl)phenyl) picolinic acid]	0 to 29
C=Cc1ccc(-c2ccc(Cl)c(C(=O)OC)n2)c(Cl)c1 [F23, methyl 3-chloro-6-(2-chloro-4-vinylphenyl)picolinate]	0 to 29
COC(=O)c1nc(-c2ccc(C(F)(F)F)cc2F)c(F)cc1Cl [F158, methyl 3-chloro-5-fluoro-6-(2-fluoro-4-(trifluoromethyl)phenyl)picolinate]	0 to 29

Same assay, conditions: post-emergence, 336 h, TRZAS: wheat, spring (Triticum aestivum), 140 g ai/ha, 14 days after application, read-out: Visual Growth Reduction (%) 14 Days After Application, TRZAS

Compound	pest or weed control at 140 g/ha [%]
O=C(O)c1nc(-c2ccc(C(F)(F)F)c(F)c2)ccc1Cl [F315, 3-Chloro-6-(3-fluoro-4-(trifluoromethyl)phenyl) picolinic acid]	60 to 74
C=Cc1ccc(-c2ccc(Cl)c(C(=O)OC)n2)c(Cl)c1 [F23, methyl 3-chloro-6-(2-chloro-4-vinylphenyl)picolinate]	0 to 29
COC(=O)c1nc(-c2ccc(C(F)(F)F)cc2F)c(F)cc1Cl [F158, methyl 3-chloro-5-fluoro-6-(2-fluoro-4-(trifluoromethyl)phenyl)picolinate]	60 to 74

Same assay, conditions: post-emergence, 336 h, blackgrass (Alopecurus myosuroides), 14 Days After Application, 140 g ai/ha, read-out: Visual Growth Reduction (%) ALOMY

Compound	pest or weed control at 140 g/ha [%]
O=C(O)c1nc(-c2ccc(C(F)(F)F)c(F)c2)ccc1Cl [F315, 3-Chloro-6-(3-fluoro-4-(trifluoromethyl)phenyl) picolinic acid]	0 to 29

Same assay, conditions: post-emergence, 336 h, canada thistle (Cirsium arvense), 14 Days After Application, 140 g ai/ha, read-out: Visual Growth Reduction (%) CIRAR

Compound	pest or weed control at 140 g/ha [%]
O=C(O)c1nc(-c2ccc(C(F)(F)F)c(F)c2)ccc1Cl [F315, 3-Chloro-6-(3-fluoro-4-(trifluoromethyl)phenyl) picolinic acid]	60 to 74

Same assay, conditions: post-emergence, 336 h, crabgrass (Digitaria sanguinalis), 14 Days After Application, 140 g ai/ha, read-out: Visual Growth Reduction (%) DIGSA

Compound	pest or weed control at 140 g/ha [%]
O=C(O)c1nc(-c2ccc(C(F)(F)F)c(F)c2)ccc1Cl [F315, 3-Chloro-6-(3-fluoro-4-(trifluoromethyl)phenyl) picolinic acid]	75 to 84

Same assay, conditions: post-emergence, 336 h, lambsquarters (Chenopodium album), 14 Days After Application, 140 g ai/ha, read-out: Visual Growth Reduction (%) CHEAL

Compound	pest or weed control at 140 g/ha [%]
O=C(O)c1nc(-c2ccc(C(F)(F)F)c(F)c2)ccc1Cl [F315, 3-Chloro-6-(3-fluoro-4-(trifluoromethyl)phenyl) picolinic acid]	60 to 74

Same assay, conditions: post-emergence, 336 h, redroot pigweed (Amaranthus retroflexus), 14 Days After Application, 140 g ai/ha, read-out: Visual Growth Reduction (%) AMARE

Compound	pest or weed control at 140 g/ha [%]
O=C(O)c1nc(-c2ccc(C(F)(F)F)c(F)c2)ccc1Cl [F315, 3-Chloro-6-(3-fluoro-4-(trifluoromethyl)phenyl) picolinic acid]	60 to 74

Same assay, conditions: post-emergence, 336 h, wild oat (Avena fatua), 14 Days After Application, 140 g ai/ha, read-out: Visual Growth Reduction (%) AVEFA

Compound	pest or weed control at 140 g/ha [%]
O=C(O)c1nc(-c2ccc(C(F)(F)F)c(F)c2)ccc1Cl [F315, 3-Chloro-6-(3-fluoro-4-(trifluoromethyl)phenyl) picolinic acid]	0 to 29

Same assay, conditions: post-emergence, 336 h, yellow nutsedge (Cyperus esculentus), 14 Days After Application, 140 g ai/ha, read-out: Visual Growth Reduction (%) CYPES

Compound	pest or weed control at 140 g/ha [%]
O=C(O)c1nc(-c2ccc(C(F)(F)F)c(F)c2)ccc1Cl [F315, 3-Chloro-6-(3-fluoro-4-(trifluoromethyl)phenyl) picolinic acid]	60 to 74
